{"source": "patent US11116769B2", "about": "“Tadalafil free base-containing film dosage form containing polyethylene glycol-based polymer and/or vinyl pyrrolidone-based polymer as dispersion stabilizer” (CTC BIO, INC., priority 2013, dated 2021)", "origin": "cited, not measured here", "data": [{"molecule": "CN1CC(=O)N2[C@H](c3ccc4c(c3)OCO4)c3[nH]c4ccccc4c3C[C@@H]2C1=O", "note": "[Tadalafil, (6R-trans)-6-(1,3-benzodioxol-5-yl)-2,3,6,7,12,12a-hexahydro-2-methyl-pyrazino[1′,2′:1,6]pyrido[3,4-b]indole-1,4-dione]", "values": [{"measurement": "solubility in organic solvents", "setting": "some organic solvents such as methanol, ethanol and acetone", "result": "slightly soluble"}, {"measurement": "solubility in water", "setting": "water", "result": "practically insoluble"}, {"measurement": "water solubility", "setting": "water at 25° C., from U.S. Pat. No. 6,841,167", "result": "about 2 μg per 1 milliliter (mL)"}]}]}
